Laboratory results published in patent US20120283274A1, “CRYSTALLINE FORMS OF SUBSTITUTED PYRAZOLOPYRIMIDINES” (priority 2009, published 2012).

Tests used:
Format in all cases: physicochemical
[1] = Determination of aqueous solubility (HPLC)
Method: The samples were shaken with a temperature controlled “Thermomixer comfort” from Eppendorf at 800 rpm (24 hours, 23° C.). The resulting suspensions were filtered with Millipore Centrifugal Filter Device UFC30VVNB (0.1) and Centrifuge Hettich EBA 12 R (10.000 g).
The pH of the filtrate was measured, and the concentration of the free base was determined by HPLC (method is described in Example 7).
Suspension of co-crystal in water was agitated with a temperature controlled. Thermomixer comfort” from Eppendorf with 800 rpm (24 hours, 23° C.). The suspension was filtered with Millipore Centrifugal Filter Device UFC30VVNB (0.1μ) and Centrifuge Hettich EBA 12 R (10,000 g).

[2] = Determination of dissolution rate of a compressed tablet (UV-absorption spectroscopy); parameters: key to Dissolution rate: —: In case that no data given in the Table 3 it was found, that the dissolution rate did not change significantly in moving from the second to the third and fourth sectors; conditions: for Dissolution rate: 0.15 M aqueous potassium chloride, 23° C., compressed tablet
Description: Only one face of the tablet was exposed to the dissolution medium, which contained an acetate/phosphate buffer system to minimise perturbation of the experimental pH from dissolution of the drug. Stirring of the solution was continuous and at a constant rate. The absorption data was converted to absolute sample weights using previously determined, pH-dependent, molar extinction coefficients. An appropriate wavelength range was chosen to ensure that spectroscopic data with an absorption value of <1.3 was analyzed, avoiding erroneous dissolution results due to saturation of the […]. Dissolution rates were calculated from the fit of a first-order exponential equation to the experimental data obtained.
The dissolution rates listed in the Table 3 were determined at pH 2.0, 3.9, 5.4, and 7.3 (+/−0.1), at a temperature of 23° C. (+/−1° C.).

[3] = DVS (dynamic vapour sorption), hygroscopicity; conditions: for hygroscopicity: DVS 50%->0%->95%->50% r.h.; for post-DVS Raman spectrum, change in form: after DVS cycle; for mass change Δm: change of relative humidity (r.h.) from 50 to 85%
Method: DVS (50%->0%->95%->50% r.h.) was performed on the samples as mentioned above. The results are summarized in the following:
Surface Measurement Systems Ltd. DVS-1 water vapour sorption analyzer and Projekt Messtechnik SPS 11-100n multi-sample water vapor sorption analyzer were used.
The sample was allowed to equilibrate at 50% relative humidity (r.h.) before starting e.g. the following predefined humidity program: • 2 h at 0% r.h. • 0 to 95% r.h. (5%/h) • 3 h at 95% r.h. • 95 to 0% (10%/h) • 2 h at 0% r.h.

Row | solubility in water or aqueous solvents ([1]; water or aqueous solvents) | Dissolution rate ([2]; pH 2.0) | Dissolution rate ([2]; pH 3.9) | Dissolution rate ([2]; pH 5.4) | Dissolution rate ([2]; pH 7.3) | hygroscopicity [3] | post-DVS Raman spectrum, change in form [3] | mass change Δm [3] | enhancement of the dissolution rate compared to the free drug ([2]; at pH 2) | solubility at 24 h ([1]; thermodynamic from solid, water, 24 hours, 23° C., at pH 8.5, near the detection limit) | total water content ([3]; humidity increased to 95% r.h., equilibrium reached) | Molecule
1 | below 10 μg/mL |  |  |  |  |  |  |  |  |  |  | CC1c2ccccc2CCN1C(=O)c1cc2ncc(Br)cn2n1 (centres unmarked) [compound A]
2 |  | 0.58 µg/min | 0.22 µg/min | — | — |  |  |  |  | < 10 µg/mL |  | C[C@@H]1c2ccccc2CCN1C(=O)c1cc2ncc(Br)cn2n1 [Free drug compound, (6-bromo-pyrazolo[1,5-a]pyrimidin-2-yl)-(1(R)-methyl-3,4-dihydro-1H-isoquinolin-2-yl)-methanone]

Second part, the molecule before the results:

Row | Molecule | solubility in water or aqueous solvents ([1]; water or aqueous solvents) | Dissolution rate ([2]; pH 2.0) | Dissolution rate ([2]; pH 3.9) | Dissolution rate ([2]; pH 5.4) | Dissolution rate ([2]; pH 7.3) | hygroscopicity [3] | post-DVS Raman spectrum, change in form [3] | mass change Δm [3] | enhancement of the dissolution rate compared to the free drug ([2]; at pH 2) | solubility at 24 h ([1]; thermodynamic from solid, water, 24 hours, 23° C., at pH 8.5, near the detection limit) | total water content ([3]; humidity increased to 95% r.h., equilibrium reached)
3 | C[C@@H]1c2ccccc2CCN1C(=O)c1cc2ncc(Br)cn2n1.O=C(O)c1cc(O)ccc1O [Example 3c, co-crystal of (6-bromo-pyrazolo[1,5-a]pyrimidin-2-yl)-(1(R)-methyl-3,4-dihydro-1H-isoquinolin-2-yl)-methanone and gentisic acid] |  | 2.04 µg/min | 1.06 µg/min | — | — | not hygroscopic | does not indicate any change in form | about 0.1% |  |  | 
4 | co-crystal of (6-bromo-pyrazolo[1,5-a]pyrimidin-2-yl)-(1(R)-methyl-3,4-dihydro-1H-isoquinolin-2-yl)-methanone and succinic acid [Example 2a] |  | 2.06 µg/min | 1.58 µg/min | — | — | not hygroscopic | does not indicate any change in form | about 0.1% | 3 fold |  | 
5 | C[C@@H]1c2ccccc2CCN1C(=O)c1cc2ncc(Br)cn2n1.O=C(O)c1ccc2ccccc2c1O [Example 4c, co-crystal of (6-bromo-pyrazolo[1,5-a]pyrimidin-2-yl)-(1(R)-methyl-3,4-dihydro-1H-isoquinolin-2-yl)-methanone and xinafoic acid] |  | 0.46 µg/min | 0.68 µg/min | 1.26 µg/min | 1.44 µg/min | slightly hygroscopic | does not indicate any change in form | about 1% |  |  | approximately 2 wt.-%
